{
  "source": "patent US5834251A",
  "about": "“Methods of modifying carbohydrate moieties” (Alko Group Ltd., priority 1994, dated 1998)",
  "origin": "cited, not measured here",
  "target": "α-2,6 Sialyltransferase, EC 2.4.99.1, from rat liver (Rattus norvegicus, UniProt P13721)",
  "sequence (P13721 whole entry)": "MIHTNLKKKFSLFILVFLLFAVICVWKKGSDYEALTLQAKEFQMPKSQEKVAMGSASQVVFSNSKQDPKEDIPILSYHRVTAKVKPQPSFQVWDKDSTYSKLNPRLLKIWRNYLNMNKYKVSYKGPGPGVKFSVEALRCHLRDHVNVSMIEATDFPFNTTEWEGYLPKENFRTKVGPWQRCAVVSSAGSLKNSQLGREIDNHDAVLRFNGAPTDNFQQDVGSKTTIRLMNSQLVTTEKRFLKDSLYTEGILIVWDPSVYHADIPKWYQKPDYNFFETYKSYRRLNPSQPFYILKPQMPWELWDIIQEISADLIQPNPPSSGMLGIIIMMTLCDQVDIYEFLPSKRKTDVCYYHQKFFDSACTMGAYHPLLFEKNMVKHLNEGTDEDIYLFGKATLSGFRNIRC",
  "conditions": "read-out: Km for the sugar donor CMP-NeuAc; commercially available enzyme, such as that from rat liver",
  "data": [
    {"compound": "CC(=O)NC1C(O)CC(OP(=O)(O)OCC2OC(n3ccc(N)nc3=O)C(O)C2O)(C(=O)O)OC1C(O)C(O)CO", "note": "(stereo not shown) [CMP-NeuAc, CMP-N-acetylneuraminic acid]", "values": [
      {"measurement": "Km", "result": 85, "unit": "µM"}
    ]}
  ]
}
